Test results taken from patent US9573987B2 (priority 2011, dated 2017).
Blank lines part the entries; values can stand above or below the molecule they belong to.

Legend:
insulin receptor = insulin receptor (Homo sapiens, UniProt P06213); experiment: Insulin receptor binding assay (competition, scintillation proximity); design: expressed in transfected cells; plasma membrane fragments
IGF-1 receptor [1] = molecular target: T1, IGF-1 receptor (Homo sapiens, UniProt P08069); experiment: IGF-1 receptor binding assay (competition, scintillation proximity); design: expressed in transfected cells; plasma membrane fragments; conditions: Table 9
[2] = molecular target: T2, insulin subtype A receptor (IR-A) (Homo sapiens, UniProt P06213); experiment: Insulin subtype A receptor phosphorylation, receptor transfected HEK293 cells; type: cell-based; conditions: for IC50: read-out: Phosphorylation at Insulin Receptor Subtype A (IC50), Table 16A
T2 construct: expressed in transfected cells; host or cells: HEK293
Method: (§1) Color development was stopped 5 min later by adding 0.05 ml 1 N HCl. Absorbance at 450 nm was measured on Titertek Multiscan MCC340 (ThermoFisher, Pittsburgh, Pa.). […]

[3] = molecular target: insulin subtype B receptor (IR-B) (Homo sapiens, UniProt P06213); experiment: Insulin subtype B receptor phosphorylation, receptor transfected HEK293 cells; type: cell-based; design: expressed in transfected cells; host or cells: HEK293; conditions: read-out: Phosphorylation at Insulin Receptor Subtype B (IC50); Table 16B
Method: as §1

IGF-1 receptor [4] = molecular target: T1, IGF-1 receptor; experiment: IGF-1 receptor phosphorylation assay, receptor transfected HEK293 cells; type: cell-based; design: expressed in transfected cells; host or cells: HEK293; conditions: Table 10
Method: Color development was stopped 5 min later by adding 0.05 ml 1 N HCl. Absorbance at 450 nm was measured on Titertek Multiscan MCC340 (ThermoFisher, Pittsburgh, Pa.).

T1 sequence (P08069 31-736 limits assumed): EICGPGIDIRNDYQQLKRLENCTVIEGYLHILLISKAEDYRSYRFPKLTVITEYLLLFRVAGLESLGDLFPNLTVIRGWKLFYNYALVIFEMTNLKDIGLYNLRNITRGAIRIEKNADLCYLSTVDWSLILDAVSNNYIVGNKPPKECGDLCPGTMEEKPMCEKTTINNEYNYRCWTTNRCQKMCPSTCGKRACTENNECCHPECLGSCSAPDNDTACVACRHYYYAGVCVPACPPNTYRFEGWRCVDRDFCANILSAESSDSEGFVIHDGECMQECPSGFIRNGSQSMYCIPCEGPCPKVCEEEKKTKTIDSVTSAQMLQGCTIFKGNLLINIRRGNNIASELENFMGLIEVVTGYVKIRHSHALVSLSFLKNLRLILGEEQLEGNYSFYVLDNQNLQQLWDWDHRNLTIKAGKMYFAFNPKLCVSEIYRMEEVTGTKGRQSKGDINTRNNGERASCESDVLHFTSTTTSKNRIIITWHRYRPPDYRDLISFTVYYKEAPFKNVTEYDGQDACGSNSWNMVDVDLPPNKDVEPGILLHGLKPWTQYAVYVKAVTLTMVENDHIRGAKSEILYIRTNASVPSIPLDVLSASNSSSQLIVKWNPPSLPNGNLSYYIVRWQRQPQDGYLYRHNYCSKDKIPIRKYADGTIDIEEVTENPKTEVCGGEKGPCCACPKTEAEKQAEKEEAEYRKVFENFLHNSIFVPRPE
T1 sequence (P08069 741-1367 partner limits assumed): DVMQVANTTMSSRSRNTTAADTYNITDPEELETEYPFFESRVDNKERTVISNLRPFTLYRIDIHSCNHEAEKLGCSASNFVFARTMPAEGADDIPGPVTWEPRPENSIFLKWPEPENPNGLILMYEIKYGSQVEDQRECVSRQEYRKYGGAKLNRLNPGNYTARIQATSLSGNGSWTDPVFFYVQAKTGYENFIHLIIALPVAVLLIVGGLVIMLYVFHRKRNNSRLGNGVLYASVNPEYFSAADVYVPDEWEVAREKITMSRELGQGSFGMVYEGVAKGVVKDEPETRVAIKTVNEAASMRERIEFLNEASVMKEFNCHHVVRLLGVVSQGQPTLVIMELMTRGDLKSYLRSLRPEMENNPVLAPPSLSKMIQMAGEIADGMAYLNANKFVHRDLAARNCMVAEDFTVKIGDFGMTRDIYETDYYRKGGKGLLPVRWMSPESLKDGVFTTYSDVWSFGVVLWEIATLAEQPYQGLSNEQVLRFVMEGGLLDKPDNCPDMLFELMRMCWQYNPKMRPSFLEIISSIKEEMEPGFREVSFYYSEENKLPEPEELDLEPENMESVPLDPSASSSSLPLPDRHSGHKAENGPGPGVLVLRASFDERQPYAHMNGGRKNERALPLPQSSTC

Molecule: CC[C@H](C)[C@H](NC(=O)CN)C(=O)N[C@H](C(=O)N[C@@H](CC(=O)O)C(=O)N[C@@H](CCC(=O)O)C(=O)N[C@H]1CSSC[C@@H]2NC(=O)[C@H](CO)NC(=O)[C@H](C)NC(=O)[C@H](Cc3c[nH]cn3)NC(=O)[C@H](CSSC[C@H](NC(=O)[C@H](CC(C)C)NC(=O)[C@H](Cc3c[nH]cn3)NC(=O)[C@H](CCC(=O)O)NC(=O)[C@@H]3CCCN3C(=O)CN)C(=O)NCC(=O)N[C@@H](C)C(=O)N[C@@H](CC(=O)O)C(=O)N[C@@H](CC(C)C)C(=O)N[C@@H](C(C)C)C(=O)N[C@@H](CC(=O)O)C(=O)N[C@@H](C)C(=O)N[C@@H](CC(C)C)C(=O)N[C@@H](Cc3ccc(O)cc3)C(=O)N[C@@H](CC(C)C)C(=O)N[C@@H](C(C)C)C(=O)N[C@H](C(=O)NCC(=O)N[C@@H](CC(=O)O)C(=O)N[C@@H](C)C(=O)NCC(=O)N[C@@H](Cc3ccccc3)C(=O)N[C@@H](Cc3ccc(O)cc3)C(N)=O)CSSC[C@@H](C(=O)N[C@@H](CC(N)=O)C(=O)O)NC(=O)[C@H](Cc3ccc(O)cc3)NC(=O)[C@H](CC[S+](C)[O-])NC(=O)[C@H](CCC(=O)O)NC(=O)[C@H](CC(C)C)NC(=O)[C@H](CCCNC(=N)N)NC(=O)[C@H](CCCNC(=N)N)NC(=O)[C@H](CC(C)C)NC(=O)[C@H](CC(=O)O)NC2=O)NC1=O)C(C)C (some centres unmarked)
Insulin Receptor % insulin (in test) (insulin receptor; Table 9): 400.7%

Molecule: DP20 random: CTP linker sequence randomized; linking peptide PPRPPQSASPPDLSPLSGTPSRPSLS; SEQ ID NO: 69 (listed as Homo sapiens)
IC50 [2]: 8.08 nM
IC50 [3]: 2.46 nM

B2: DP20, S2A: CTP linking peptide wherein the serines have been replaced with alanine (SEQ ID NO: 80) (protein, listed as Homo sapiens)
chain: GEEEEEKGPEHLCGAHLVDALYLVCGDRGFYAAAARAPPPALPAPARLPGPADTPILPQKGIVDECCHRSCDLRRLENYCN
IC50 [2]: 11.8 nM
IC50 [3]: 7.44 nM

B3: DP20 P to A: CTP linking peptide wherein the prolines have been replaced with alanine (SEQ ID NO: 70) (protein, listed as Homo sapiens)
chain: GEEEEEKGPEHLCGAHLVDALYLVCGDRGFYSSSSRAAAASLASASRLAGASDTAILAQKGIVDECCHRSCDLRRLENYCN
in vitro phosphorylation activity at the insulin subtype A receptor (result in words) ([2]; FIGS. 21, 23): appreciable activity at the insulin receptor, equivalent to that of native IGF-1

The remaining lines, values ahead:

Insulin Receptor % insulin (in test) (insulin receptor; Table 9): 316.0%
Molecule: CC[C@H](C)[C@H](NC(=O)CN)C(=O)N[C@H](C(=O)N[C@@H](CC(=O)O)C(=O)N[C@@H](CCC(=O)O)C(=O)N[C@H]1CSSC[C@@H]2NC(=O)[C@H](CO)NC(=O)[C@H](CCCNC(=N)N)NC(=O)[C@H](Cc3ccccc3)NC(=O)[C@H](CSSC[C@H](NC(=O)[C@H](CC(C)C)NC(=O)[C@H](Cc3c[nH]cn3)NC(=O)[C@H](CCC(=O)O)NC(=O)[C@@H]3CCCN3C(=O)CN)C(=O)NCC(=O)N[C@@H](C)C(=O)N[C@@H](CC(=O)O)C(=O)N[C@@H](CC(C)C)C(=O)N[C@@H](C(C)C)C(=O)N[C@@H](CC(=O)O)C(=O)N[C@@H](C)C(=O)N[C@@H](CC(C)C)C(=O)N[C@@H](Cc3ccc(O)cc3)C(=O)N[C@@H](CC(C)C)C(=O)N[C@@H](C(C)C)C(=O)N[C@H](C(=O)NCC(=O)N[C@@H](CC(=O)O)C(=O)N[C@@H](CCCNC(=N)N)C(=O)NCC(=O)N[C@@H](Cc3ccccc3)C(=O)N[C@@H](Cc3ccc(O)cc3)C(N)=O)CSSC[C@@H](C(=O)N[C@@H](C)C(N)=O)NC(=O)[C@H](Cc3ccc(O)cc3)NC(=O)[C@H](CC[S+](C)[O-])NC(=O)[C@H](CCC(=O)O)NC(=O)[C@H](CC(C)C)NC(=O)[C@H](CCCNC(=N)N)NC(=O)[C@H](CCCNC(=N)N)NC(=O)[C@H](CC(C)C)NC(=O)[C@H](CC(=O)O)NC2=O)NC1=O)C(C)C (some centres unmarked) [IGF-1 A:B (H5D10Y16L17) (S═O)DPI]

IGF-1 Receptor % IGF-1 (in test) (IGF-1 receptor [1]): 3.3%
Molecule: CC[C@H](C)[C@H](NC(=O)CN)C(=O)N[C@H](C(=O)N[C@@H](CC(=O)O)C(=O)N[C@@H](CCC(=O)O)C(=O)N[C@H]1CSSC[C@@H]2NC(=O)[C@H](CO)NC(=O)[C@H](CCCNC(=N)N)NC(=O)[C@H](Cc3ccccc3)NC(=O)[C@H](CSSC[C@H](NC(=O)[C@H](CC(C)C)NC(=O)[C@@H](NC(=O)[C@H](CCC(=O)O)NC(=O)[C@@H]3CCCN3C(=O)CN)[C@@H](C)O)C(=O)NCC(=O)N[C@@H](C)C(=O)N[C@@H](CCC(=O)O)C(=O)N[C@@H](CC(C)C)C(=O)N[C@@H](C(C)C)C(=O)N[C@@H](CC(=O)O)C(=O)N[C@@H](C)C(=O)N[C@@H](CC(C)C)C(=O)N[C@@H](Cc3ccc(O)cc3)C(=O)N[C@@H](CC(C)C)C(=O)N[C@@H](C(C)C)C(=O)N[C@H](C(=O)NCC(=O)N[C@@H](CC(=O)O)C(=O)N[C@@H](CCCNC(=N)N)C(=O)NCC(=O)N[C@@H](Cc3ccccc3)C(=O)N[C@@H](Cc3ccc(O)cc3)C(N)=O)CSSC[C@@H](C(=O)N[C@@H](C)C(N)=O)NC(=O)[C@H](Cc3ccc(O)cc3)NC(=O)[C@H](CCSC)NC(=O)[C@H](CCC(=O)O)NC(=O)[C@H](CC(C)C)NC(=O)[C@H](CCCNC(=N)N)NC(=O)[C@H](CCCNC(=N)N)NC(=O)[C@H](CC(C)C)NC(=O)[C@H](CC(=O)O)NC2=O)NC1=O)C(C)C [IGF-1 A:B (E10Y16L17) DPI]

IGF-1 Receptor % IGF (IGF-1 receptor [4]): 7.1%
EC50 (IGF-1 receptor [4]; total phosphorylation): 12.2 nM
Ratio (insulin receptor; IGF-1 receptor IC50 over insulin receptor IC50): 29.1
Insulin Receptor % insulin (in test) (insulin receptor; Table 9): 479.0%
IGF-1 Receptor % IGF-1 (in test) (IGF-1 receptor [1]): 11.2%
Molecule: CC[C@H](C)[C@H](NC(=O)CN)C(=O)N[C@H](C(=O)N[C@@H](CC(=O)O)C(=O)N[C@@H](CCC(=O)O)C(=O)N[C@H]1CSSC[C@@H]2NC(=O)[C@H](CO)NC(=O)[C@H](CCCNC(=N)N)NC(=O)[C@H](Cc3ccccc3)NC(=O)[C@H](CSSC[C@H](NC(=O)[C@H](CC(C)C)NC(=O)[C@H](Cc3c[nH]cn3)NC(=O)[C@H](CCC(=O)O)NC(=O)[C@@H]3CCCN3C(=O)CN)C(=O)NCC(=O)N[C@@H](C)C(=O)N[C@@H](CC(=O)O)C(=O)N[C@@H](CC(C)C)C(=O)N[C@@H](C(C)C)C(=O)N[C@@H](CC(=O)O)C(=O)N[C@@H](C)C(=O)N[C@@H](CC(C)C)C(=O)N[C@@H](Cc3ccc(O)cc3)C(=O)N[C@@H](CC(C)C)C(=O)N[C@@H](C(C)C)C(=O)N[C@H](C(=O)NCC(=O)N[C@@H](CC(=O)O)C(=O)N[C@@H](CCCNC(=N)N)C(=O)NCC(=O)N[C@@H](Cc3ccccc3)C(=O)N[C@@H](Cc3ccc(O)cc3)C(N)=O)CSSC[C@@H](C(=O)N[C@@H](C)C(N)=O)NC(=O)[C@H](Cc3ccc(O)cc3)NC(=O)[C@H](CCSC)NC(=O)[C@H](CCC(=O)O)NC(=O)[C@H](CC(C)C)NC(=O)[C@H](CCCNC(=N)N)NC(=O)[C@H](CCCNC(=N)N)NC(=O)[C@H](CC(C)C)NC(=O)[C@H](CC(=O)O)NC2=O)NC1=O)C(C)C [IGF-1 A:B (H5D10Y16L17) DPI]

Insulin Receptor % insulin (in test) (insulin receptor; Table 9): 5.8%
Insulin Receptor % native insulin activity (0.6 nM) (insulin receptor; Table 9): 5.8%
Molecule: CC[C@H](C)[C@H](NC(=O)CN)C(=O)N[C@H](C(=O)N[C@@H](CC(=O)O)C(=O)N[C@@H](CCC(=O)O)C(=O)N[C@H]1CSSC[C@@H]2NC(=O)[C@H](CO)NC(=O)[C@H](CCCNC(=N)N)NC(=O)[C@H](Cc3ccccc3)NC(=O)[C@H](CSSC[C@H](NC(=O)[C@H](CC(C)C)NC(=O)[C@@H](NC(=O)[C@H](CCC(=O)O)NC(=O)[C@@H]3CCCN3C(=O)CN)[C@@H](C)O)C(=O)NCC(=O)N[C@@H](C)C(=O)N[C@@H](CCC(=O)O)C(=O)N[C@@H](CC(C)C)C(=O)N[C@@H](C(C)C)C(=O)N[C@@H](CC(=O)O)C(=O)N[C@@H](C)C(=O)N[C@@H](CC(C)C)C(=O)N[C@@H](CCC(N)=O)C(=O)N[C@@H](Cc3ccccc3)C(=O)N[C@@H](C(C)C)C(=O)N[C@H](C(=O)NCC(=O)N[C@@H](CC(=O)O)C(=O)N[C@@H](CCCNC(=N)N)C(=O)NCC(=O)N[C@@H](Cc3ccccc3)C(=O)N[C@@H](Cc3ccc(O)cc3)C(=O)N[C@@H](Cc3ccccc3)C(=O)N[C@@H](CC(N)=O)C(=O)N[C@@H](CCCCN)C(=O)N3CCC[C@H]3C(=O)N[C@H](C(N)=O)[C@@H](C)O)CSSC[C@@H](C(=O)N[C@@H](C)C(N)=O)NC(=O)[C@H](Cc3ccc(O)cc3)NC(=O)[C@H](CCSC)NC(=O)[C@H](CCC(=O)O)NC(=O)[C@H](CC(C)C)NC(=O)[C@H](CCCNC(=N)N)NC(=O)[C@H](CCCNC(=N)N)NC(=O)[C@H](CC(C)C)NC(=O)[C@H](CC(=O)O)NC2=O)NC1=O)C(C)C [IGF-1 A:B]

IC50 [2]: 84.3 nM
IC50 [3]: 35.4 nM
B1: DP-20, C^0: DP20 structure with the native proinsulin C peptide as the linking peptide (protein)
chain: GEEEEEKGPEHLCGAHLVDALYLVCGDRGFYRREAEDLQVGQVELGGGPGAGSLQPLALEGSLQRKGIVDECCHRSCDLRRLENYCN
